Data published in patent US20100233199A1, “MODULATORS OF HYPERSENSITIVITY REACTIONS” (priority 2007, published 2010).

Columns and labels:
skin mast cells = format: in vivo, mice; conditions: for systemic effects of local (ear) treatment: mouse, in vivo
Protocol: Left ears were treated with DMSO and right ears with 0.2% MDD1 or 0.1% dexamethasone in DMSO twice daily for four days. Mice were then sensitised with anti DNP-20 ul IgE antibody administered to the ears by intradermal injection using an insulin syringe. Local mast cell activation was measured by dye recovery in response to FcεRI crosslink 24 hours post-injection: 100 μg DNP-albumin/1% Evans blue in PBS was injected intravenously and ear biopsies taken after 30 minutes were incubated at 80° C. in 1 ml formamide for 2 hours. The absorbance supernatant was measured at 620 nm.

[1] = Peptide solubility observation; format: physicochemical
OVA-sensitised mice [2] = assay: OVA-induced asthma model, inflammatory response (eosinophils, BAL cells, cytokine expression, serum IgE); format: in vivo, C57BL/6 mice
Protocol: (§1) C57BL/6 mice were sensitised with 10 ug ovalbumin antigen (OVA) in saline intraperitoneally seven times given on alternate days. 40 days after first sensitisation dose, mice were challenged with intranasal OVA (20 ul in each nostril of a solution of 5 mg/ml of OVA in saline). Mice received two additional challenges of intranasal OVA at days 3 and 6 after the first challenge with OVA. Control mice were sensitised with OVA, but challenged intranasally with saline. Groups of mice receiving parenteral MDD1 treatment were intravenously injected with 8 mg/Kg of MDD1 three times, 6 hours prior to each OVA challenge. Nebulised MDD1 or MDDscram (SCR) peptide was given 6 hours prior to each OVA challenge by nebulising 5 mice per cage with 8 ml of 1 mg/ml MDD1 or control peptide.
Blood smears were prepared and the percentage of eosinophils was calculated by morphological criteria after May-Grünwald Giemsa-staining. Bronchoalveolar lavage (BAL) was recovered by lavaging airways twice with 1 ml HANKS solution via the tracheal cannula while gently massaging the thorax. Lung lower left lobe was collected and homogenised. Cells were filtered through a cell strainer and cell suspensions prepared in staining medium (PBS with 1% FCS). BAL and lung samples were incubated with anti-CD11b, anti-CCR3, anti-CD4 and antiB220 mab markers for flow cytometric analysis using a FACScan equipped with CellQuest software.
Lung upper right lobe was collected and homogenised on ice. Total RNA was prepared using Trizol (GIBCO, Invitrogen). Purity of the RNA was determined by A260/A280. 5 μg RNA for each sample was reverse transcribed into cDNA using Omniscript RT kit (Qiagen). Cytokine specific predesigned TaqMan gene expression assay (Applied Biosystems) were used to measure cytokine relative gene expression following the manufacturer's instructions (Applied Biosystems). Each experimental sample was assayed in three replicates. β-actin specific primers were used as an internal standard. Negative controls with blank cDNA template were run with every assay to assess specificity. The cycling conditions were as follows: one cycle at 95° C. for 10 minutes, followed by 40 cycles of PCR amplification, each consisting of 95° C. for 15 seconds and 60° C. for 45 seconds. Sequence Detection Software (SDS v 1.2.2, Applied Biosystems) was used for analysis of the results. A threshold cycle (Ct) was determined for each sample. PCR assays showing non-specific products at the end point were excluded from further data analysis. Relative quantification using comparative Ct method was used for analysing results. The results were expressed as relative fold change over the values for non-allergic mice.
OVA-specific IgE detection: 96-well maxisorp plates were coated overnight at 4° C. with anti-mouse IgE. 2% skim milk was used for unspecific binding blockade. Prediluted serum samples were incubated overnight, plates were loaded with OVA-biotin for 1.5 hours and a colometric reaction was developed using ABTS following manufacture's instructions. For OVA-specific IgG, 96-well maxisorp microtiter plates were pretreated with 0.2% glutaraldehyde and were coated with 10 μg/ml of OVA in 10 mM carbonate buffer (pH 9.6) for 3 hours at 37° C. Wells were blocked with 2% BSA in 10 mM carbonate buffer (pH 9.6) overnight at 4° C. in a humidified chamber. Serum samples were incubated at 37° C. for 1 hour. Peroxidase-conjugated […] followed by ABTS was used to develop the colorimetric reaction. Optical density was read in a microplate reader using a 405 nm filter. Levels of IgE and IgG were expressed as OD units.

RBL-2H3 cells [3] = assay: MDD1 uptake by RBL-2H3 cells (FACS, streptavidin-APC); format: cell-based, rat; conditions: biotinylated MDD1 0.001, 0.01 and 0.1 mM overnight; intracellular FACS staining with streptavidin APC; FIG. 6
Protocol: RBL-2H3 cells were grown in F15 medium supplemented with 10% of fetal calf serum (FCS) and antibiotics. Cells were carefully detached from the culture flask with a cell scraper and plated at a concentration of 5×10^5 cells/well in a 96 well microtiter plate. Cells were incubated with various concentrations of biotinylated MDD1 (0.1, 0.01 and 0.001 mM) overnight. Biotinylated MDD1 uptake by live cells was detected using streptavidin-APC in single-cell suspensions previously treated with a combined cytofix/cytopenn fixation and penneabilization solution kit following manufacture's instructions (Becton Dickinson, BD). Cells were then analysed using a BD FACscan flow cytometer.

RBL-2H3 cells [4] = assay: RBL-2H3 degranulation assay (β-hexosaminidase release); format: cell-based, rat; conditions: for degranulation upon IgE receptor crosslinking: peptide 0.01 mM pre-treatment overnight, IgE coating + DNP/albumin crosslinking, FIG. 7
Protocol: (§2) Mast cell degranulation was measured using the β-hexosaminidase release method. RBL-2H3 cells were grown in F15 medium supplemented with 10% of fetal calf serum (FCS) and antibiotics. Cells were carefully detached from the culture flask with a cell scraper and plated at a concentration of 5×10^5 cells/well in a 96 well microtiter plate and incubated in the presence of MDD1 or SCR peptide overnight. RBL-2H3 cells were then incubated with 500 ng/ml anti-DNP IgE mb (SIGMA) for 2 hours at 37° C. After washing, cells were stimulated with 100 ng/ml DNP/albumin for 30 minutes. For non IgE specific stimulation 1 nM Ionomycin only was added to the cultures for 30 minutes. Supernatants were then collected and cell lysates were prepared using 0.1% Triton X-100. Lysate and supernatant samples (10 μl) were transferred into 96-well plates and 50 μl mM 1 mM p-nitrophenyl-N-acetyl-β-D-glucopyranoside in 50 mM citrate buffer was added to each well and incubated for 1 hour at 37° C. in the dark. The reaction was stopped by adding 100 μl 0.1M NaHCO3/0.1M Na2CO3 into each well and the absorbance measured at 405 nm. Percentage degranulation was calculated by the following formula: OD supernatant/(OD supernatant+OD lysate)×100.
as §2, with “MPX741 peptide” for “MDD1”, “MPX742” for “SCR”, “(100)” for “(10 μl)”, “μl” for “μl mM”, “formula:” for “formula: OD supernatant/(OD supernatant+OD lysate)×100.”
OD supernatant/(OD supernatant+OD lysate)×100.

OVA-sensitised mice [5] = assay: OVA-induced asthma model, lung resistance after β-methacholine; format: in vivo, C57BL/6 mice; conditions: 6 hours prior to each OVA challenge, compared to control peptide
Protocol: as §1
Functional lung studies and organ collection was performed one day after the final OVA challenge. Lung resistance was measured in anesthetized mice after increasing doses of β-methacholine. […] Lung resistance was measured by plethysmography, using an apparatus and software supplied by Buxco. Lung resistance values are expressed as an average of each group of mice for each methacholine dose. For each mouse, individual values were calculated by averaging collected data (every 5 seconds during 5 minutes) for each methacholine dose.

**Q.** With `C[C@@H]1C[C@H]2[C@@H]3CCC4=CC(=O)C=C[C@]4(C)[C@@]3(F)[C@@H](O)C[C@]2(C)[C@@]1(O)C(=O)CO` [dexamethasone, reference compound] as the molecule, how does the “systemic effects of local (ear) treatment” value (skin mast cells) read?
**A.** The value was “systemic immunosuppresion”.

**Q.** Which solubility [1] does the source give for “Ac-PQDQGWNAEITLQMVQY-NH2 [MPX743, PQDQGWNAEITLQMVQY]” here?
**A.** The solubility was “poorly soluble”.

**Q.** What does the source list for Ac-RALYDNVPECAEELAFRKGD-NH2 [MDD1]?
**A.** overall inflammatory response in the asthmatic reaction (OVA-sensitised mice [2]; OVA-sensitized mice, FIG. 9): reduced; eosinophilia in blood (OVA-sensitised mice [2]; allergic mice compared to control treated mice, FIG. 9A): decreased; cellularity in broncho-alveolar lavages (OVA-sensitised mice [2]; allergic mice compared to control treated mice, FIG. 9B): decreased; cytokine production in inflammatory foci (TNF expression) (OVA-sensitised mice [2]; allergic mice compared to control treated mice, FIG. 9C): decreased; levels of antigen-specific IgE in serum (OVA-sensitised mice [2]; allergic mice compared to control treated mice, FIG. 9D): decreased; comparison with dexamethasone treatment in the inflammatory parameters tested (OVA-sensitised mice [2]; dexamethasone 2 mg/kg i.p., some of the parameters, FIG. 9): outperformed dexamethasone treatment; MDD1 peptide uptake by live cells (RBL-2H3 cells [3]): All cells were positive for MDD1 peptide and the levels were observed to increase with peptide concentration; mast cell activation after non-specific stimulation (RBL-2H3 cells [4]; non IgE specific stimulation (ionomycin), data not shown): inhibit mast cell activation; degranulation upon IgE receptor crosslinking (RBL-2H3 cells [4]): inhibit degranulation; mast cell activation following IgE receptor crosslink, by dye extravasation (skin mast cells; 0.2% MDD1 peptide/DMSO topically to ear, twice daily for four days, compared to contralateral ears treated with DMSO only, FIG. 10): reduced levels of activation; systemic effects of local (ear) treatment (skin mast cells): minimal systemic effects; Lung resistance (RL) following increasing doses of β-methacholine (OVA-sensitised mice [5]; intravenously 8 mg/kg, FIG. 8A): reduced; Lung resistance (RL) following increasing doses of β-methacholine (OVA-sensitised mice [5]; nebulised intranasal route 1 mg/ml, FIG. 8B): reduced

**Q.** Which “degranulation upon IgE receptor crosslinking” value (RBL-2H3 cells [4]) does the source give for “EALPGEDCAFRKDANRLVEY (listed as Homo sapiens) [MDD1scram, control peptide, reference compound]” here?
**A.** Its value is “only a minor inhibitory effect”.

**Q.** For “LEPPVKLKELHFSNMKTVD (listed as Homo sapiens) [MPX742]”, which “degranulation following IgE receptor crosslink” value (RBL-2H3 cells [4]; MPX741, MPX742 0.01 mM pre-treatment, IgE coating + crosslinking, FIG. 11) is on record?
**A.** Its value is “significantly reduced degranulation”.
